According to patent US7691416B2, “Methods of treating vascular disease” (priority 2002, dated 2010):

Assays:
[1] = Nitric oxide exposure of rats before balloon angioplasty; format: in vivo, rat; conditions: NO administered at 500 ppm, 1 hour
From the text: (§1) Animals. Male (250-350 g) Brown Norway rats (RT1^n) were used as aortic graft donors and male (250-350 g) Lewis rats (RT11) as recipients. Dawley (400-450 g) rats were used in the balloon injury model. Adult male C57BL/6, C57/S129, p21^−/− and p53^−/− null mice were purchased from Jackson Laboratory (Bar Harbor, Me.). mkk3^(−/−) null mice were generated as described Lu et al. (EMBO. 18:1845-1857 (1999)). The inos^−/− and enos^−/− mice were bred at the University of Pittsburgh. Aortic transplant model. Aortic transplantation was performed as described in Shimizu et al. (Nat. Med. 7:738-741 (2001)). Briefly, 3 to 4 cm of descending aorta was harvested from the donor and implanted between the renal arteries and the aortic bifurcation of the recipient. Both edges of the native abdominal aorta were ligated. Balloon injury model. Balloon angioplasty was carried out as described in Murakami et al. (Atherosclerosis 157:361-368 (2001)). […] [^3H]thymidine incorporation was measured by scintillation spectroscopy and presented as mean counts/min/well. […] Areas from eight to ten captured images were calculated using digital imaging software as number of pixels corresponding to those areas. Twenty-four to forty-eight sections from each group were statistically analyzed with SPSS software version 10. […]

[2] = system: intimal hyperplasia after balloon injury of the carotid artery; assay: Balloon injury model of the carotid artery; format: in vivo, rat; conditions: NO 250 ppm; one hour pre-treatment
From the text: as §1

p38 MAPK = assay: Western blot of phosphorylated p38 MAPK in SMC; format: cell-based, mouse
From the text: Animals. Male (250-350 g) Brown Norway rats (RT1^n) were used as aortic graft donors and male (250-350 g) Lewis rats (RT11) as recipients. Dawley (400-450 g) rats were used in the balloon injury model. Adult male C57BL/6, C57/S129, p21^−/− and p53^−/− null mice were purchased from Jackson Laboratory (Bar Harbor, Me.). mkk3^(−/−) null mice were generated as described Lu et al. (EMBO. 18:1845-1857 (1999)). The inos^−/− and enos^−/− mice were bred at the University of Pittsburgh. Aortic transplant model. Aortic transplantation was performed as described in Shimizu et al. (Nat. Med. 7:738-741 (2001)). Briefly, 3 to 4 cm of descending aorta was harvested from the donor and implanted between the renal arteries and the aortic bifurcation of the recipient. Both edges of the native abdominal aorta were ligated. Balloon injury model. Balloon angioplasty was carried out as described in Murakami et al. (Atherosclerosis 157:361-368 (2001)). Briefly, a 2 Fr. arterial embolectomy catheter (Baxter, Chicago, Ill.) was inserted into the common carotid artery, and injury was created by inflating the balloon to 5 atmospheres of pressure for 5 minutes. The arteries were flushed and the external carotid artery was ligated, ensuring return of blood flow through the common and internal carotid arteries. Injury of the vessel wall and subsequent pathological analysis was made in a manner that was blinded to the treatment group. CO exposure. CO was delivered to animals as described in Otterbein et al. (Nat. Med. 6:422-428 (2000)). Graft donors and recipients were exposed to CO (250 ppm) for two days before transplantation and for 56 days immediately following transplantation. In the balloon injury model, rats received either no pretreatment or were exposed to CO (250 ppm) for one hour prior to injury. Following surgery rats were housed in room air for two weeks. Cells. Primary mouse and rat smooth muscle cells (SMC) were isolated and cultured as described in Laubach et al. (Proc Natl Acad Sci USA 92:10688-9 (1995)). Mouse SMC isolated from HO-1^−/− mice were obtained as described in Duckers et al. (Nat. Med. 7:693-698 (2001)). Cell treatment and reagents. Guanylate cyclase inhibitor 1H(1,2,4) oxadiazolo(4,3-a)quinoxalin-1 (ODQ; Calbiochem-Novabiochem, San Diego, Calif.; 10-100 μM) and p38 MAPK inhibitor pyridinyl imidazol SB203580 (Calbiochem; 5-20 μM) were dissolved in DMSO. […] [^3H]thymidine incorporation was measured by scintillation spectroscopy and presented as mean counts/min/well. […] Areas from eight to ten captured images were calculated using digital imaging software as number of pixels corresponding to those areas. Twenty-four to forty-eight sections from each group were statistically analyzed with SPSS software version 10. […]

p21Cip1 = assay: Western blot of p21Cip1 expression; format: cell-based, mouse
From the text: (§2) Animals. Male (250-350 g) Brown Norway rats (RT1^n) were used as aortic graft donors and male (250-350 g) Lewis rats (RT11) as recipients. Dawley (400-450 g) rats were used in the balloon injury model. Adult male C57BL/6, C57/S129, p21^−/− and p53^−/− null mice were purchased from Jackson Laboratory (Bar Harbor, Me.). mkk3^(−/−) null mice were generated as described Lu et al. (EMBO. 18:1845-1857 (1999)). The inos^−/− and enos^−/− mice were bred at the University of Pittsburgh. Aortic transplant model. Aortic transplantation was performed as described in Shimizu et al. (Nat. Med. 7:738-741 (2001)). Briefly, 3 to 4 cm of descending aorta was harvested from the donor and implanted between the renal arteries and the aortic bifurcation of the recipient. Both edges of the native abdominal aorta were ligated. Balloon injury model. Balloon angioplasty was carried out as described in Murakami et al. (Atherosclerosis 157:361-368 (2001)). Briefly, a 2 Fr. arterial embolectomy catheter (Baxter, Chicago, Ill.) was inserted into the common carotid artery, and injury was created by inflating the balloon to 5 atmospheres of pressure for 5 minutes. The arteries were flushed and the external carotid artery was ligated, ensuring return of blood flow through the common and internal carotid arteries. Injury of the vessel wall and subsequent pathological analysis was made in a manner that was blinded to the treatment group. CO exposure. CO was delivered to animals as described in Otterbein et al. (Nat. Med. 6:422-428 (2000)). Graft donors and recipients were exposed to CO (250 ppm) for two days before transplantation and for 56 days immediately following transplantation. In the balloon injury model, rats received either no pretreatment or were exposed to CO (250 ppm) for one hour prior to injury. Following surgery rats were housed in room air for two weeks. Cells. Primary mouse and rat smooth muscle cells (SMC) were isolated and cultured as described in Laubach et al. (Proc Natl Acad Sci USA 92:10688-9 (1995)). Mouse SMC isolated from HO-1^−/− mice were obtained as described in Duckers et al. (Nat. Med. 7:693-698 (2001)). Cell treatment and reagents. Guanylate cyclase inhibitor 1H(1,2,4) oxadiazolo(4,3-a)quinoxalin-1 (ODQ; Calbiochem-Novabiochem, San Diego, Calif.; 10-100 μM) and p38 MAPK inhibitor pyridinyl imidazol SB203580 (Calbiochem; 5-20 μM) were dissolved in DMSO. The cGMP analogue 8-bromo-cGMP sodium salt (8-Br-cGMP; Sigma-Aldrich, St. Louis, Mo.; 10-100 μM) and the PKG inhibitor (10-100 μM; Alexis Biochemicals) were dissolved in water. Cell counts and [^3H] thymidine incorporation. Rat and mouse SMC were isolated and cultured as described in Peyton et al. (Blood 99:4443-4448 (2002)). Proliferation assays were carried out as described in Petkova et al. (J Biol. Chem. 276:7932-7936 (2001)). For [^3H] thymidine incorporation studies, cells were serum-starved overnight and then stimulated with 10% serum containing 5 μCi/ml [^3H] thymidine (New England Nuclear, Boston Mass.). [^3H]thymidine incorporation was measured by scintillation spectroscopy and presented as mean counts/min/well. Histomorphometric analysis. Aortic grafts and carotid arteries were harvested at 56 and 14 days respectively. Vessels were fixed, embedded, and serially sectioned (5μ) in toto. Every third slide was stained with Hematoxylin and Eosin (H&E) for histomorphometric analyses. In both models, one or two images per slide at a resolution of 1520×1080 pixels were captured at a magnification of 25× with a Zeiss microscope (Axioskop, Iowa City, Iowa), RT color SPOT (Diagnostic Instrument, Inc., Saint Joseph, Mich.) and Windows NT (Compaq Computer) using Adobe Photoshop version 5.5 software. Areas from eight to ten captured images were calculated using digital imaging software as number of pixels corresponding to those areas. Twenty-four to forty-eight sections from each group were statistically analyzed with SPSS software version 10. Immunostaining and cell population histomorphometric analysis. […]

mouse SMC = assay: SMC proliferation, [3H]thymidine incorporation; format: cell-based
From the text: as §2

[N]=O [NO, Nitric Oxide, reference compound]
Lethality [1]: lethal
Intimal thickening triggered by balloon injury [2]: did not modulate

O=c1onc2cnc3ccccc3n12 [ODQ, 1H(1,2,4) oxadiazolo(4,3-a)quinoxalin-1, reference compound]
Activation of p38 MAPK by CO when cGMP generation is blocked (p38 MAPK; CO plus ODQ): abolished
Ability of CO to up-regulate p21Cip1 expression under guanylate cyclase inhibition (p21Cip1; CO plus ODQ): impaired
Ability of CO to suppress SMC proliferation under guanylate cyclase inhibition (mouse SMC; CO 250 ppm plus ODQ): impaired

Nc1nc2c(nc(Br)n2[C@@H]2O[C@@H]3COP(=O)([O-])O[C@H]3[C@H]2O)c(=O)[nH]1.[Na+] [8-Br-cGMP, 8-Bromoguanosine 3′-5′-cyclic monophosphate sodium salt, reference compound]
p38 MAPK activation (p38 MAPK; SMC exposed to the cGMP analogue): activated
p21Cip1 expression (p21Cip1; SMC exposed to the cGMP analogue, comparably to CO): increased
Suppression of proliferation by the cGMP analogue (mouse SMC; SMC derived from p21-/- mice): impaired
SMC proliferation (mouse SMC; wild type SMC exposed to the cGMP analogue): suppressed

C[S+]([O-])c1ccc(-c2nc(-c3ccncc3)c(-c3ccc(F)cc3)[nH]2)cc1 (centres unmarked) [SB203580, reference compound]
Ability of 8Br-cGMP to up-regulate expression of p21Cip1 in presence of p38 MAPK inhibitor (p21Cip1; 8Br-cGMP plus SB203580): suppressed
Ability of CO to up-regulate expression of p21Cip1 in presence of p38 MAPK inhibitor (p21Cip1; CO 250 ppm plus SB203580): blocked
Anti-proliferative effect of 8Br-cGMP in presence of p38 MAPK inhibitor (mouse SMC; 8Br-cGMP plus SB203580): abrogated
Anti-proliferative effect of CO in presence of p38 MAPK inhibitor (mouse SMC; CO 250 ppm plus SB203580): suppressed
Effects of CO on proliferation in presence of p38 MAPK inhibitor (mouse SMC; SMC from p21-/- mice, CO 250 ppm plus SB203580): did not modulate
